# Test results reported in US9896662B2, “Process for enhancing stem cell bioactivity using tauroursodeoxycholic acid” (Pusan National University Industry—University Cooperation …, priority 2014, dated 2018).
# What was measured:
# [1] = tested on: leukocytes, lymphocytes, monocytes, and granulocytes in peripheral blood; assay: complete blood cell (CBC) count; type: in vivo; settings: oral, mice, 10 mg/kg for 3 days
# Experimental: (§1) When TUDCA was orally administered, a variety of cell populations are mobilized to peripheral blood. After orally administering TUDCA to mice, the cell populations were analyzed by Hill's assay. As a result, it was confirmed that the number of angiogenic stem cells increased in TUDCA concentration and time-dependent manner (FIGS. 4a and 4b). In order to confirm side effects caused by mobilization of cell populations associated with immunity and inflammation, other than angiogenic stem cells, upon treatment with TUDCA, the change in the number of leukocytes, lymphocytes, monocytes, and granulocytes in peripheral blood was confirmed by complete blood cell (CBC) count. […] Also, it was confirmed that […] are EPCs by confirming the uptake of acetyl-LDL and FITC-isolectin B4 (FIG. 4d).
# [2] = tested on: Human arterial endothelial cells (HAECs) mixed with angiogenic stem cells; assay: tube formation assay of HAECs mixed with angiogenic stem cells; type: cell-based; settings: TUDCA 50 μM
# From the text: It is the most significant process in the vascular recovery mechanism that angiogenic stem cells mobilized from bone marrow are integrated with vascular endothelial cells preexisting in damaged tissue, to generate new blood vessels through interaction. Human arterial endothelial cells (HAECs) were mixed with angiogenic stem cells, and then the integration capability between the two cells was examined by tube formation assay.
# [3] = tested on: senescent angiogenic stem cells; assay: nitric oxide and reactive oxygen species in senescent angiogenic stem cells; type: cell-based; settings: senescent angiogenic stem cells treated with TUDCA
# [4] = tested on: CD44, N-cadherin, c-kit, and LFA1 in HAECs; assay: mRNA expression levels of cell adhesion molecules in HAECs; type: cell-based, Human
# From the text: (§2) Further, as the first step of integration with vascular endothelial cells is cell adhesion, mRNA expression levels of cell adhesion molecules in HAECs and EPCs were examined.
# [5] = tested on: senescent angiogenic stem cells (passages 13 to 16); assay: β-galactosidase staining of senescent angiogenic stem cells; type: cell-based
# Experimental: In order to use stem cells as a stem cell therapy product, it is important to obtain a sufficient number of stem cells in a healthy state. However, upon in vitro expansion of stem cells for obtaining a sufficient number of stem cells, repeated passages cause senescence of stem cells. In order to resolve this problem, angiogenic stem cells subjected to repeated passages (passages 13 to 16) were treated with TUDCA, to verify senescence inhibition. Senescent angiogenic stem cells were treated with TUDCA and subjected to β-galactosidase staining capable of confirming senescence, to confirm senescence recovery.
# [6] = tested on: CD44, Jagged-1, N-cadherin, VLA5, CXCR4, c-kit, and Notch in EPCs; assay: mRNA expression levels of cell adhesion molecules in EPCs; type: cell-based
# From the text: as §2
# [7] = tested on: angiogenic stem cells in peripheral blood; assay: Hill's assay of cell populations mobilized to peripheral blood; type: in vivo; settings: oral, mice; concentration and time-dependent
# Experimental: as §1
# [8] = tested on: angiogenic stem cells and cell populations in peripheral blood; assay: oral administration to healthy subjects: cell populations mobilized to peripheral blood; type: in vivo, human; settings: 5 mg/kg oral for 3 days
# Experimental: Upon oral administration of TUDCA to healthy subjects, angiogenic stem cells and various cell populations, which were mobilized to peripheral blood, were confirmed and differentiation potential into functional endothelial progenitor cells was verified using peripheral blood. 5 mg/kg of TUDCA was orally administered to healthy subjects for 3 days, and the expression of angiogenic stem cell markers was examined.
# [9] = tested on: ICAM, Jagged1, N-cadherin, LFA1, and c-kit; assay: mRNA expression of cell adhesion factors in CD34+ cells; type: cell-based; settings: TUDCA 50 μM for 5 hours
# Experimental: Based thereon, a change in mRNA expression of cell adhesion factors involved in cell adhesion was confirmed. After treating CD34^+ cells with TUDCA (50 μM) for 5 hours, mRNA expression of ICAM, Jagged′, N-cadherin, LFA1, and c-kit, which are involved in cell adhesion, was confirmed.
# hindlimb ischemic tissue [10] = assay: mouse hindlimb ischemia model, oral TUDCA; type: in vivo; settings: 20 mg/kg oral every day
# Experimental: TUDCA was applied to mouse disease models based on the above experiments, to verify the effects. Mouse hindlimb ischemia model, which is one of the disease animals, for verifying vascular repair capability was prepared. Thereafter, 20 mg/kg of TUDCA was orally administered to mice every day, to confirm vascular repair capability over time. […] In order to confirm whether angiogenic stem cells were mobilized by TUDCA to hindlimb ischemic tissue, hindlimb ischemic tissue was removed 3 days after the preparation of the hindlimb ischemia models, and flow cytometry was performed using an angiogenic stem cell marker. As a result, it was confirmed that the number of angiogenic stem cells in ischemic tissue increased in the group to which TUDCA was orally administered (FIG. 7c). In order to confirm angiogenesis by TUDCA, hindlimb ischemic tissue was removed 14 days after the preparation of the hindlimb ischemia models and subjected to immunofluorescent staining, to verify capillary density and arteriole density.
# [11] = tested on: angiogenic stem cells (CD34+/Sca1+) in peripheral blood; assay: FACS analysis of angiogenic stem cells in peripheral blood after oral administration; type: in vivo; settings: 10 mg/kg oral, C57BL/6 mice, day 0, 1, 3
# Experimental: (§3) In order to confirm mobilization capability of angiogenic stem cells, which were dissociated from bone marrow stromal cells, to peripheral blood, CD34^+ hematopoietic stem cells (HSCs) were treated with various concentrations of TUDCA (0, 10, 50, 100 μM), to confirm the cell migration capability by trans-well assay. […] Based on the result, TUDCA (10 mg/kg) was orally administered to C57BL/6 mice, and the number of angiogenic stem cells (CD34^+/Sca1^+) in peripheral blood were analyzed by FACS analysis over time (at day 0, 1, 3).
# angiogenic stem cells [12] = assay: proliferation capability of angiogenic stem cells; type: cell-based; settings: 50 μM of TUDCA (tested 0, 10, 50, 100 μM)
# Experimental: (§4) In order to confirm that the treatment with TUDCA involves enhancement of biological activity functions of angiogenic stem cells in addition to enhancement of mobilization and migration capabilities of angiogenic stem cells from bone marrow to peripheral blood and ischemic tissue, angiogenic stem cells were treated with different concentrations (0, 10, 50, 100 μM) of TUDCA. Then, various biological activity functions were evaluated. […] In order to confirm vascular differentiation potential, tube-forming capability was examined.
# angiogenic stem cells [13] = assay: tube-forming capability of angiogenic stem cells; type: cell-based; settings: TUDCA 0, 10, 50, 100 μM; concentration-dependent
# Experimental: as §4
# Akt = Akt activation in CD34+ HSC; type: cell-based
# From the text: (§5) Meanwhile, in order to clarify the impact of TUDCA on CD34^+ HSC differentiation into the EPC lineage, the EPC colony forming capability of CD34^+ HSCs was examined. As a result, it was confirmed that the EPC colony forming capability was enhanced by TUDCA (FIG. 4e). Further, as Akt activation via PI3-kinase increases differentiation of CD34^+ HSCs into the EPC lineage, it was examined whether TUDCA activates Akt in CD34^+ HSC. As a result, it was confirmed that TUDCA increased Akt phosphorylation, and the exposure to LY294002, a PI3K inhibitor, inhibited TUDCA-mediated CD34^+ HSC differentiation into the EPC lineage (FIG. 4f).
# CD34+ HSCs = assay: EPC colony forming capability of CD34+ HSCs (differentiation into the EPC lineage); type: cell-based
# From the text: as §5
# angiogenic stem cells [14] = assay: infiltration capability of angiogenic stem cells; type: cell-based; settings: 50 μM of TUDCA
# Experimental: as §4
# hindlimb ischemic tissue [15] = assay: hindlimb ischemia model in GFP bone marrow-transplanted mice, oral TUDCA; type: in vivo, GFP-BMT mice (C57BL/6); settings: 20 mg/kg oral, GFP-BMT mice
# From the text: It is known that angiogenic stem cells are mainly present in bone marrow, but they are present in different tissues than bone marrow. In order to confirm whether angiogenic stem cells are derived from bone marrow by TUDCA and involved in vascular repair mechanism, bone marrow was isolated from green fluorescent protein (GFP) mice and transplanted into C57BL/6. Once bone marrow transplantation (BMT) mice are thus prepared, chimeric mice which show green fluorescence only for bone marrow cells are obtained. After preparing hindlimb ischemia animal models using GFP-BMT mice, TUDCA (20 mg/kg) was orally administered to verify vascular repair capability. […] In order to confirm angiogenesis by TUDCA, hindlimb ischemic tissue was removed 14 days after the preparation of the hindlimb ischemia models and subjected to immunofluorescent staining, to verify capillary and arteriole density. […] In order to confirm whether angiogenic stem cells were mobilized by TUDCA from bone marrow to hindlimb ischemic tissue, mobilization capability of angiogenic stem cells was examined by immunofluorescent staining using a bone marrow marker GFP, an angiogenic stem cell marker c-kit, a vascular marker ILB4, into which hindlimb ischemic tissue removed from the hindlimb ischemia models was transplanted 3 days after the preparation. […] In order to examine whether angiogenic stem cells mobilized by TUDCA from bone marrow differentiate into new blood vessels in hindlimb ischemic tissue, vascular differentiation potential of angiogenic stem cells was examined, through immunofluorescent staining and morphological analysis, using a bone marrow marker GFP, a marker of vascular differentiation VEGFR, a vascular marker ILB4, into which hindlimb ischemic tissue removed from the hindlimb ischemia models was transplanted 14 days after the preparation.
# [16] = tested on: CD34+ cells on bone marrow stromal cells; assay: adhesion and dissociation of CD34+ cells on bone marrow stromal cells (fluorescence microscope count); type: cell-based; settings: TUDCA 50, 100 μM, incubated 1 hour, compared with the control
# Experimental: When ischemic damage occurs, for vascular repair, a process in which angiogenic stem cells integrated with bone marrow stromal cells are dissociated from bone marrow and transported to ischemic tissue first occurs in the vascular repair mechanism. In order to confirm a change in dissociation of angiogenic stem cells from bone marrow stromal cells by TUDCA, CD34^+ cells stained with CM-DiI (staining red), which were treated with TUDCA (0, 50, 100 μM), were incubated for 1 hour on glass slides in which bone marrow stromal cells were seeded. The number of CD34^+ cells adhered to or dissociated from bone marrow stromal cells was counted by a fluorescence microscope (FIGS. 1a, 1b, and 1c). AMD3100, a CXCR4 antagonist, was used as a positive control.
# [17] = tested on: CD34+ hematopoietic stem cells (HSCs); assay: trans-well assay of cell migration capability; type: cell-based; settings: TUDCA 0, 10, 50, 100 μM; concentration-dependent
# Experimental: as §3
# [18] = day 14, immunofluorescent staining
structure (smiles),measurement,setting,value
"C[C@H](CCC(=O)NCCS(=O)(=O)O)[C@H]1CC[C@H]2[C@@H]3[C@@H](O)C[C@@H]4C[C@H](O)CC[C@]4(C)[C@H]3CC[C@]12C [TUDCA, tauroursodeoxycholic acid]",number of granulocytes involved in inflammatory response,[1],significantly decreased
same,tube formation capability,[2],significantly increased
same,expression amount of nitric oxide,[3],significantly increased
same,expression amount of reactive oxygen species,[3],significantly decreased
same,"mRNA expression levels of CD44, N-cadherin, c-kit, and LFA1",[4],significantly increased
same,number of β-galactosidase positive cells,[5],significantly increased
same,"mRNA expression levels of CD44, Jagged-1, N-cadherin, VLA5, CXCR4, c-kit, and Notch",[6],significantly increased
same,number of angiogenic stem cells (Hill's assay),[7],increased
same,colony forming capability (EPC-CFA),[8],significantly increased
same,distribution of granulocytes involved in inflammatory response,[8],significantly decreased
same,"expression of angiogenic stem cell markers CD34, CD31, and c-kit",[8],significantly increased
same,"mRNA expression of cell adhesion factors (ICAM, Jagged1, N-cadherin, LFA1, c-kit)",[9],significantly decreased
same,blood flow improvement (LDPI assay),hindlimb ischemic tissue [10],significantly increased
same,number of angiogenic stem cells in ischemic tissue (flow cytometry),hindlimb ischemic tissue [10]; day 3,increased
same,number of arterioles,hindlimb ischemic tissue [10]; [18],significantly increased
same,number of capillaries,hindlimb ischemic tissue [10]; [18],significantly increased
same,number of angiogenic stem cells (CD34+/Sca1+) in peripheral blood,[11],significantly increased
same,proliferation capability of angiogenic stem cells,angiogenic stem cells [12],most significantly increased
same,tube-forming capability of angiogenic stem cells,angiogenic stem cells [13],significantly increased
same,Akt phosphorylation,Akt,increased
same,EPC colony forming capability of CD34+ HSCs,CD34+ HSCs,enhanced
same,infiltration capability of angiogenic stem cells,angiogenic stem cells [14],most significantly increased
same,blood flow (LDPI assay),hindlimb ischemic tissue [15],significantly improved
same,number of angiogenic stem cells derived from bone marrow into ischemic tissue,"hindlimb ischemic tissue [15]; day 3, GFP/c-kit/ILB4 staining",significantly increased
same,number of arterioles,hindlimb ischemic tissue [15]; day 14,significantly increased
same,number of capillaries,hindlimb ischemic tissue [15]; day 14,significantly increased
same,number of bone marrow-derived angiogenic stem cells differentiated into vascular endothelial cells,"hindlimb ischemic tissue [15]; day 14, GFP/VEGFR/ILB4 staining",significantly increased
same,number of CD34+ cells adhered to the stromal cells,[16],significantly decreased
same,number of CD34+ cells dissociated from the stromal cells,[16],significantly increased
same,migration capability of CD34+ cells,[17],significantly increased
